Measurements taken from ChEMBL document CHEMBL3879908, “Pyrrolidinone carboxamide derivatives” (2014).

These compounds were tested against T1, Chemerin-like receptor 1 (Homo sapiens, UniProt Q99788) (assay: Displacement of [125I]-chemerin from ChemR23 (unknown origin) transfected in mouse BaF3 cells after 3 hrs by scintillation counting method).
T1 sequence (Q99788 whole entry): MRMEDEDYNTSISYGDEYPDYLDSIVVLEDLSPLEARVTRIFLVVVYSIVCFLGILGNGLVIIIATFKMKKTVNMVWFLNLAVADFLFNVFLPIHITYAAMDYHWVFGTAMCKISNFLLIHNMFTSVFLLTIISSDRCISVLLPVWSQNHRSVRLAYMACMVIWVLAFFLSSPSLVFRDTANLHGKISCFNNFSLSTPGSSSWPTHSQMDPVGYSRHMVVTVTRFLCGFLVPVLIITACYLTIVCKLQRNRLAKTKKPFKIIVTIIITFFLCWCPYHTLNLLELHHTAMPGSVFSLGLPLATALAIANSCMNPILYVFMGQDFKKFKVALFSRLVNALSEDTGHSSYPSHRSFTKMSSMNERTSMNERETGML
Format: cell-based

Row | Compound | IC50 [nM]
1 | Cc1cccc(C)c1N1C[C@](C(=O)Nc2cc(C3CC3)cc(C(F)(F)F)c2)(C(C)C)CC1=O | ≤ 30
2 | Cc1cccc(C)c1N1C[C@@](CN(C)CC(C)C)(C(=O)Nc2cc(C(F)(F)F)cc(C(F)(F)F)c2)[C@H](C)C1=O | ≤ 30
3 | Cc1ccccc1N1CC(C)(C(=O)Nc2cc(C(F)(F)F)cc(C(F)(F)F)c2)CC1=O (configuration not stated) | ≤ 30
4 | CCN(C)C[C@@]1(C(=O)Nc2cc(C(F)(F)F)cc(C(F)(F)F)c2)CN(c2c(C)cccc2C)C(=O)[C@H]1C | ≤ 30
5 | Cc1cccc(C)c1N1C[C@@](CN2CCC(F)(F)CC2)(C(=O)Nc2cc(C(F)(F)F)cc(C(F)(F)F)c2)[C@H](C)C1=O | ≤ 30
6 | Cc1cccc(C)c1N1CC(C(=O)Nc2cc(C(F)(F)F)cc(C(F)(F)F)c2)(C2CCN(C(=O)OC(C)(C)C)CC2)CC1=O (configuration not stated) | ≤ 30
7 | Cc1cccc(Br)c1N1CC(C(=O)Nc2cccc(C(F)(F)F)c2)CC1=O (configuration not stated) | 300 to 6000
8 | Cc1cccc(C)c1N1C[C@@](CN2CCCCC2)(C(=O)Nc2cc(C(F)(F)F)cc(C(F)(F)F)c2)[C@H](C)C1=O | 300 to 6000
9 | CC[C@@]1(C(=O)Nc2cc(C)cc(C(F)(F)F)c2)CN(c2c(C)cccc2C)C(=O)[C@H]1C | ≤ 30
10 | Cc1cc(F)cc(C)c1N1CC(C(=O)Nc2cc(C(F)(F)F)cc(C(F)(F)F)c2)CC1=O (configuration not stated) | 30 to 300
11 | Cc1cccc(C)c1N1CC(Cc2ncc[nH]2)(C(=O)Nc2cc(C(F)(F)F)cc(C(F)(F)F)c2)CC1=O (configuration not stated) | 30 to 300
12 | Cc1cccc(C)c1N1C[C@@](CN2CCOC[C@H]2C)(C(=O)Nc2cc(C(F)(F)F)cc(C(F)(F)F)c2)[C@H](C)C1=O | 30 to 300
13 | CCC(C)(C)C1(C(=O)Nc2cc(C(F)(F)F)cc(C(F)(F)F)c2)CC(=O)N(c2c(C)cccc2C)C1 (configuration not stated) | 30 to 300
14 | Cc1cccc(C)c1N1CC(C(=O)Nc2cc(Br)cc(C(F)(F)F)c2)(C(C)C)CC1=O (configuration not stated) | ≤ 30
15 | Cc1cccc(C)c1N1C[C@@](CN(C)C)(C(=O)Nc2cc(C3CC3)cc(C(F)(F)F)c2)[C@H](C)C1=O | 30 to 300
16 | Cc1cccc(C)c1N1C[C@@](CN2CCC(F)(F)CC2)(C(=O)Nc2cc(C#N)cc(C(F)(F)F)c2)[C@H](C)C1=O | 30 to 300

Row | Compound | IC50 [nM]
17 | Cc1cccc(C)c1N1CC(C(=O)Nc2cc(C(F)(F)F)cc(C(F)(F)F)c2)(C2CCCCC2)CC1=O (configuration not stated) | ≤ 30
18 | Cc1cccc(C)c1N1C[C@@](CN(CCF)CC(C)C)(C(=O)Nc2cc(C(F)(F)F)cc(C(F)(F)F)c2)[C@H](C)C1=O | ≤ 30
19 | Cc1ccc(N2CC(C(=O)Nc3cc(C(F)(F)F)cc(C(F)(F)F)c3)CC2=O)c(C)c1 (configuration not stated) | 30 to 300
20 | Cc1cccc(C)c1N1C[C@@](CN(C)CC(F)(F)F)(C(=O)Nc2cc(C#N)cc(C(F)(F)F)c2)[C@H](C)C1=O | ≤ 30
21 | Cc1cccc(C)c1N1CC(C(=O)Nc2cc(C(F)(F)F)cc(C(F)(F)F)c2)(C(C)N2CCCC2)CC1=O (configuration not stated) | 300 to 6000
22 | CCN(CC)C[C@@]1(C(=O)Nc2cc(C3CC3)cc(C(F)(F)F)c2)CN(c2c(C)cccc2C)C(=O)[C@H]1C | ≤ 30
23 | Cc1cccc(C)c1N1CC(C(=O)Nc2cc(C(F)(F)F)cc(C(F)(F)F)c2)(C2CCN(C)CC2)CC1=O (configuration not stated) | 300 to 6000
24 | Cc1cccc(C)c1N1CC(C(=O)Nc2cc(Cl)cc(Cl)c2)CC1=O (configuration not stated) | 30 to 300
25 | CC[C@@]1(C(=O)Nc2cc(CN3CCCC3C(F)(F)F)cc(C(F)(F)F)c2)CN(c2c(C)cccc2C)C(=O)[C@H]1C (some centres not stated) | ≤ 30
26 | Cc1cccc(C)c1N1CC(C(=O)Nc2cc(Cl)cc(C(F)(F)F)c2)CC1=O (configuration not stated) | 30 to 300
27 | CC(C)C1(C(=O)Nc2cc(C(F)(F)F)cc(C(F)(F)F)c2)CC(=O)N(c2ccccc2CO)C1 (configuration not stated) | 300 to 6000
28 | CC[C@@]1(C(=O)Nc2cc(Cl)cc(C(F)(F)F)c2)CN(c2c(C)cccc2C)C(=O)[C@H]1C | ≤ 30
29 | Cc1cccc(C2CC2)c1N1CC(C(=O)Nc2cc(C(F)(F)F)cc(C(F)(F)F)c2)CC1=O (configuration not stated) | ≤ 30
30 | Cc1cccc(C)c1N1CC(C(=O)Nc2cc(C(F)(F)F)cc(C(F)(F)F)c2)(C2CCC2)CC1=O (configuration not stated) | ≤ 30
31 | Cc1cccc(C)c1N1CC(C(=O)Nc2cc(C(F)(F)F)cc(C(F)(F)F)c2)(C2CCCC2)CC1=O (configuration not stated) | ≤ 30
32 | Cc1cccc(C)c1N1C[C@@](CN2CCCCC2)(C(=O)Nc2cc(C3CC3)cc(C(F)(F)F)c2)[C@H](C)C1=O | 30 to 300
